Reference: patent US20230116972A1, “CD38 MODULATORS AND METHODS OF USE THEREOF” (Cytokinetics, Inc., priority 2021, published 2023)

Assays:
[1] = target: T1, endogenous CD38 in HL60 cells (Homo sapiens, UniProt P28907); assay: cellular CD38 assay in HL60 cells (cellular NAD levels); assay type: cell-based; conditions: all-trans retinoic acid, 24 hours, read-out: hCD38 HL60 ATRA NAD Cell Diaphorase IC50
T1 construct: endogenous in cells; host or cells: HL60 (leukemic cells, treated with all-trans retinoic acid)
T1 sequence (P28907 1-300): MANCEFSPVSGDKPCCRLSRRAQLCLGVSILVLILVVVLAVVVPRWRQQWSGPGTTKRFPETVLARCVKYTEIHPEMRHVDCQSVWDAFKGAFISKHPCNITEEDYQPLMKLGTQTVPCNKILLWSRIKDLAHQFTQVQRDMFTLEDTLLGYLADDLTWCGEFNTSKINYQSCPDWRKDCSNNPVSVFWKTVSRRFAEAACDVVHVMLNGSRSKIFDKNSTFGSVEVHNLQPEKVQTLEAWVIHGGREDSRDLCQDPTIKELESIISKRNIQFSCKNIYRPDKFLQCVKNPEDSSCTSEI
How it was run: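 Endogenous CD38 inhibition is inferred from NAD levels in HL60 cells after 24 h compound exposure at 20000 cells per well. A lytic cycling readout (0.2 U/mL diaphorase, 0.8 U/mL alcohol dehydrogenase, resazurin, FMN, ethanol, 0.2% Triton X-100, Tris/EDTA pH 8.4) ran 60 min at ambient temperature. Resorufin fluorescence was read at 540/590 nm.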

[2] = target: T2, human CD38 (Homo sapiens, UniProt P28907); assay: human recombinant CD38 enzyme assay (hydrolysis of NAD+); assay type: biochemical; conditions: human recombinant CD38, 0.4 nM enzyme, 62.5 μM NAD+; read-out: hCD38 BioChem IC50
T2 sequence (P28907 1-300): T1 sequence (P28907 1-300)
How it was run: (§1)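 Residual NAD+ after 60 min of cell-free hydrolysis by recombinant mouse or human CD38 at ambient temperature, measured over a dose range. Detection used ADH conversion to NADH, then diaphorase-coupled resazurin-to-resorufin fluorescence (Ex/Em 540/590 nm).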

[3] = target: T3, mouse CD38 (Mus musculus, UniProt P56528); assay: mouse recombinant CD38 enzyme assay (hydrolysis of NAD+); assay type: biochemical; conditions: read-out: mCD38 BioChem IC50
T3 sequence (P56528 1-304): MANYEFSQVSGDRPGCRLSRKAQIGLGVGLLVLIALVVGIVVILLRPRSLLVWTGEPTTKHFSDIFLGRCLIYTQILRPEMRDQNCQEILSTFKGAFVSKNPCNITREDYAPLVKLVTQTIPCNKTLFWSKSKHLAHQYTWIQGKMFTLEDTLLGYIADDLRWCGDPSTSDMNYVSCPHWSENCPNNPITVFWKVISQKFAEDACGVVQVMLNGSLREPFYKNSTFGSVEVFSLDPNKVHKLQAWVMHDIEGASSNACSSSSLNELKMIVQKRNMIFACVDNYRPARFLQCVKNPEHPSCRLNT
How it was run: as §1

Compound	IC50 [1]	IC50 [2]	IC50 [3]
O=C(Nc1ccnc(C(F)(F)F)c1)c1cccc(-n2ccnc2)n1 [Compound 38, 6-(1H-imidazol-1-yl)-N-(2-(trifluoromethyl)pyridin-4-yl)picolinamide]	873 nM	10 nM	7 nM
Cn1cncc1-c1nc(C(=O)Nc2ccc(C(F)(F)F)nc2)cc(C2(C)COC2)n1 [Compound 309, 2-(1-methyl-1H-imidazol-5-yl)-6-(3-methyloxetan-3-yl)-N-(6-(trifluoromethyl)pyridin-3-yl)pyrimidine-4-carboxamide]	933 nM	4.2 nM	1.3 nM
Cn1cncc1-c1ccnc(C(=O)N[C@H]2CC[C@H](OCc3ccccc3)CC2)n1 [Compound 312, N-((1r,4r)-4-(benzyloxy)cyclohexyl)-4-(1-methyl-1H-imidazol-5-yl)pyrimidine-2-carboxamide]	2790 nM	26.5 nM	10.2 nM
COc1cc(C(=O)Nc2ccc(C(F)F)nc2)nc(-c2cncn2C)c1 [Compound 225, N-(6-(difluoromethyl)pyridin-3-yl)-4-methoxy-6-(1-methyl-1H-imidazol-5-yl)picolinamide]	1080 nM	7 nM	3.8 nM
CO[C@H]1CC[C@H](NC(=O)c2cc(C(F)(F)F)cc(-n3ccnc3)n2)CC1 [Compound 60, 6-(1H-imidazol-1-yl)-N-(4-methoxycyclohexyl)-4-(trifluoromethyl)picolinamide]	4810 nM	61 nM	12 nM
O=C(Nc1cccnc1)c1nccc(-n2ccnc2)n1 [Compound 36, 4-(1H-imidazol-1-yl)-N-(pyridin-3-yl)pyrimidine-2-carboxamide]	187 nM	5 nM	14 nM
O=C(Nc1ccncc1)c1cc(-n2ccnc2)ccn1 [Compound 7, 4-(1H-imidazol-1-yl)-N-(pyridin-4-yl)picolinamide]	4460 nM	549 nM	223 nM
O=C(Nc1ccc(C(F)F)nc1)c1nccc(-n2ccnc2)n1 [Compound 144, N-(6-(difluoromethyl)pyridin-3-yl)-4-(1H-imidazol-1-yl)pyrimidine-2-carboxamide]	129 nM	3 nM	14 nM
Cn1cncc1-c1nccc(C(=O)Nc2ccc(C(F)(F)F)nc2)n1 [Compound 69, 2-(1-methyl-1H-imidazol-5-yl)-N-(6-(trifluoromethyl)pyridin-3-yl)pyrimidine-4-carboxamide]	481 nM	3 nM	2 nM
COCCO[C@H]1CC[C@H](NC(=O)c2nccc(-c3cncn3C)n2)CC1 [Compound 209, N-((1r,4r)-4-(2-methoxyethoxy)cyclohexyl)-4-(1-methyl-1H-imidazol-5-yl)pyrimidine-2-carboxamide]	8540 nM	104 nM	35 nM
O=C(NC12CC(O)(C1)C2)c1cccc(-n2ccnc2)n1 [Compound 15, N-(3-hydroxybicyclo[1.1.1]pentan-1-yl)-6-(1H-imidazol-1-yl)picolinamide]	9960 nM	1140 nM	748 nM
COc1cc(-c2cncn2C)nc(C(=O)Nc2ccc(C(F)(F)F)nc2)n1 [Compound 234, 4-methoxy-6-(1-methyl-1H-imidazol-5-yl)-N-(6-(trifluoromethyl)pyridin-3-yl)pyrimidine-2-carboxamide]	557 nM	2.4 nM	1.4 nM
COCCOc1cc(C(=O)Nc2ccc(C(F)(F)F)nc2)nc(-c2cncn2C)n1 [Compound 267, 6-(2-methoxyethoxy)-2-(1-methyl-1H-imidazol-5-yl)-N-(6-(trifluoromethyl)pyridin-3-yl)pyrimidine-4-carboxamide]	403 nM	2.5 nM	0.3 nM
Cn1cncc1-c1nccc(C(=O)Nc2ccc(C(F)F)nc2)n1 [Compound 94, N-(6-(difluoromethyl)pyridin-3-yl)-2-(1-methyl-1H-imidazol-5-yl)pyrimidine-4-carboxamide]	241 nM	2 nM	2 nM
Cn1cncc1-c1nc(C(=O)Nc2ccc(C(F)(F)F)nc2)cc(C2CCOCC2)n1 [Compound 198, 2-(1-methyl-1H-imidazol-5-yl)-6-(tetrahydro-2H-pyran-4-yl)-N-(6-(trifluoromethyl)pyridin-3-yl)pyrimidine-4-carboxamide]	1130 nM	3.8 nM	1 nM
CO[C@H]1CC[C@H](NC(=O)c2nc(-n3ccnc3)ccc2C)CC1 [Compound 100, 6-(1H-imidazol-1-yl)-N-(4-methoxycyclohexyl)-3-methylpicolinamide]	6200 nM	263 nM	61 nM
O=C(N[C@H]1C[C@H](Oc2ccccc2)C1)c1nccc(-n2ccnc2)n1 [Compound 219, 4-(1H-imidazol-1-yl)-N-((1r,3r)-3-phenoxycyclobutyl)pyrimidine-2-carboxamide]	10800 nM	361 nM	99 nM
O=C(N[C@H]1CC[C@H](O)CC1)c1cccc(-n2ccnc2)n1 [Compound 30, N-(4-hydroxycyclohexyl)-6-(1H-imidazol-1-yl)picolinamide]	2830 nM	85 nM	14 nM
Cc1cc(C(=O)Nc2cccnc2)nc(-n2ccnc2)c1 [Compound 32, 6-(1H-imidazol-1-yl)-4-methyl-N-(pyridin-3-yl)picolinamide]	264 nM	3 nM	1 nM
Cc1cc(NC(=O)c2cccc(-c3cncs3)n2)ccn1 [Compound 52, N-(2-methylpyridin-4-yl)-6-(thiazol-5-yl)picolinamide]	11400 nM	678 nM	292 nM
COc1cc(C(=O)N[C@H]2CC[C@H](C)CC2)nc(-n2ccnc2)c1 [Compound 166, 6-(1H-imidazol-1-yl)-4-methoxy-N-((1r,4r)-4-methylcyclohexyl)picolinamide]	2240 nM	21 nM	2 nM
O=C(N[C@H]1CC[C@](O)(c2ccccc2)CC1)c1nccc(-n2ccnc2)n1 [Compound 260, N-((1s,4s)-4-hydroxy-4-phenylcyclohexyl)-4-(1H-imidazol-1-yl)pyrimidine-2-carboxamide]	10600 nM	271 nM	161 nM
Cc1ncc(-c2cncn2C)nc1C(=O)Nc1ccc(C(F)(F)F)nc1 [Compound 296, 3-methyl-6-(1-methyl-1H-imidazol-5-yl)-N-(6-(trifluoromethyl)pyridin-3-yl)pyrazine-2-carboxamide]	1140 nM	8.7 nM	9.9 nM
Cn1cncc1-c1nc(C(=O)N[C@H]2CC[C@H](O)CC2)cc(C2CCC(F)(F)CC2)n1 [Compound 288, 6-(4,4-difluorocyclohexyl)-N-((1r,4r)-4-hydroxycyclohexyl)-2-(1-methyl-1H-imidazol-5-yl)pyrimidine-4-carboxamide]	2580 nM	10.3 nM	1 nM
O=C(Nc1cccnc1)c1cncc(-n2ccnc2)n1 [Compound 56, 6-(1H-imidazol-1-yl)-N-(pyridin-3-yl)pyrazine-2-carboxamide]	263 nM	5 nM	6 nM
